Laboratory results published in patent US9757378B2, “Methods to modulate acute myeloid leukemia stem/progenitor cell expansion and/or differentiation” (UNIVERSITE DE MONTREAL, priority 2013, dated 2017).
“Also recorded” adds a separate entry of the source.

Tests used:
primary human AML cells [1] = experiment: Primary screen: differentiation of primary human AML cells in vitro (CD34/CD15, HTS flow cytometry); details: for percent gated cells (viability): 2 μM (commercial libraries) or 1 μg/ml (IRIC); for % increase CD34+CD15− (%): compared to DMSO ((compound − DMSO)/DMSO*100)
Description: AML cells were thawed in 37° C. water bath and 1:10 diluted in prewarmed Iscove's modified Dulbecco's medium (IMDM) containing 20% FBS and DNase 100 μg/ml. […] When compounds were added to the culture medium, final DMSO concentrations were 0.1% in all in vitro experiments and 0.01% when cultured cells were transplanted into NSG-mice.
Compounds were tested at 2 μM (commercial libraries) or 1 μg/ml (Medicinal Chemistry Facility, IRIC). […] For validation experiments AML cells were grown in 384-well plates with 3-8 replicates per condition.
Flow cytometry was performed on an LSR™ II cytometer equipped with an HTS-device (BD Bioscience, Primary and Secondary screens and in vitro validation experiments) or on a BD Canto™ II cytometer (BD Bioscience, Xenotransplantation and CellTrace Violet™ experiments). Cells were stained for 30 minutes at 4° C. protected from light if not otherwise indicated (CellTrace Violet™ staining). […] CD34 intensities in flow cytometry plots were set at high levels on day 0 to allow tracing of non-predictable decreases of intensities during 7 days in culture.

[2] = test system: primary human AML specimens; experiment: Validation: 7-day serum-free culture of diverse AML specimens (CD34+CD15− cells); type: cell-based; details: for impact on CD34+CD15− cell numbers: vs DMSO, P<0.0001 paired t-test; for median CD34+CD15− percentage relative to uncultured cells: SR1 0.75-1 μM, C05 2 μM, DMSO 19% / 22%; for preventing AML cell differentiation in vitro, compound alone: 17 AML specimens, UM729 1 μM
Description: The following flow cytometry-antibodies were used: […] Statistical analyses of all in vitro experiments were done using Graphpad Prism v 6.01. […] Normalized CD34^+CD15^- percentages (td7/t0) were analyzed by Wilcoxon matched pairs signed rank test. Bars and error bars represent means and standard deviations (SD), or standard errors of the mean (SEM), as specified. Extreme limiting dilution analysis software (Hu, […]: extreme limiting dilution analysis for comparing depleted and enriched populations in stem cell and other assays. Journal of immunological methods 347, 70-78 (2009); http://bioinf.wehi.edu.au/software/elda/) was used to estimate LSC frequencies with 95% confidence intervals. In cases where all mice were positive or negative, one-sided confidence intervals were calculated. Differences in LSC frequencies between culture conditions were analyzed by Chi-square test.

primary human AML cells [3] = experiment: Secondary screen: dose response, five serial dilutions (CD34/CD15 flow cytometry); type: cell-based; design: key to 2ndary screen criteria fulfilled: 0 = no; 1 = yes; details: for % increase CD34+CD15− (%) 2ndary screen / % increase CD34+CD15− (cell counts) 2ndary screen: at optimal concentration, compared to DMSO; for 2ndary screen criteria fulfilled: ≧50% increase CD34+CD15− (%) and cell counts and ≧50% gated cells in at least one dose
Description: In the primary screen cells were plated in transparent 384-wellplates (Greiner, 781182) at a density of 5,000 cells in 50 μl final volume per well. Compounds were tested at 2 μM (commercial libraries) or 1 μg/ml (Medicinal Chemistry Facility, IRIC). […] For validation experiments AML cells were grown in 384-well plates with 3-8 replicates per condition.
Flow cytometry was performed on an LSR™ II cytometer equipped with an HTS-device (BD Bioscience, Primary and Secondary screens and in vitro validation experiments) or on a BD Canto™ II cytometer (BD Bioscience, Xenotransplantation and CellTrace Violet™ experiments). Cells were stained for 30 minutes at 4° C. protected from light if not otherwise indicated (CellTrace Violet™ staining). The following flow cytometry-antibodies were used: CD45 Pacific Blue (BioLegend 304029), CD33 PE (BD Bioscience 555450), CD34 APC (BD Bioscience 555824), CD3 FITC (BD Bioscience 555332), CD19 PE-Cy7 (BD Bioscience 557835), CD15 PE (BD Bioscience 555401), and anti-mouse CD45.1 APC-efluor 730 (eBioscience 47-0453-82). CD34 intensities in flow cytometry plots were set at high levels on day 0 to allow tracing of non-predictable decreases of intensities during 7 days in culture.

AML cells (04H112) = experiment: Cell proliferation assay (CellTrace Violet); type: cell-based, human; details: 4-day culture; SR1 500 nM, UM729 1 μM
Description: CellTrace™ Violet (Invitrogen/Life Technologies C34557) was added at a final concentration of 3 μM to cell suspensions (10^7 cells/ml) containing SR1 (500 nM), UM729 (1 μM), both compounds, or vehicle DMSO (0.1%). CellTrace™ Violet labeled cells were stained with surface antibodies against human CD3, CD19, CD34, and CD33 on day 0, day 2, and day 4 prior to analysis on a BD Canto™ II flow cytometer. Data were analyzed using FlowJo™ version 7.6.5.

[4] = test system: AhR target genes CYP1A1, CYP1B1 and AHRR; experiment: AhR target gene expression by q-RT-PCR in AML cells; type: cell-based, human; details: for upregulation of AhR target genes AHRR and CYP1A1 upon 24 h in vitro culture: SR1 500 nM, TCDD 0.1, 1, 10 nM, n=13 samples
Text: RNA was isolated from primary AML samples using Trizol® reagent according to the manufacturer's instructions (Invitrogen/Life Technologies) and reverse transcribed into cDNA using MMLV reverse transcriptase and random primers. 2× Fast Master Mix® containing primers described below and probes from the Universal Probe Library® (Roche Diagnostics) were used for q-RT-PCR reactions which were amplified in 2-3 technical replicates on an ABI 7900HT Fast Real-Time® PCR System (Applied Biosystems/Life Technologies). Analysis was done with SDS 2.2.2 software (Applied Biosystems/Life Technologies) using the comparative delta CT method with GAPDH as reference gene. The following primers and probes were used: GAPDH: 5′-[…]-3′ (forward, SEQ ID NO:7), 5′-[…]-3′ (reverse, SEQ ID NO:8), probe 60, CYP1A1: 5′-[…]-3′ (forward, SEQ ID NO:9), 5′-[…]-3′ (reverse, SEQ ID NO:10), probe 59, CYP1B1: 5′-[…]-3′ (forward, SEQ ID NO:11), 5′-[…]-3′ (reverse, SEQ ID NO:12), probe 20, AHRR: 5′-[…]-3′ (forward, SEQ ID NO:13), 5′-[…]-3′ (reverse, SEQ ID NO:14), probe 72, AHR: 5′-[…]-3′ (forward, SEQ ID NO:15), 5′-[…]-3′ (reverse, SEQ ID NO:16), probe 33.

[5] = test system: leukemia stem cells (LSC) of primary human AML samples; experiment: Xenotransplantation of 4-day cultured AML cells into NSG mice (engraftment, LSC frequency); type: in vivo
Text: NOD.Cg-Prkdc^scid II2rg^tm1Wjl/SzJ (NSG) mice were purchased from Jackson Laboratory® (Bar Harbor, Me.) and bred in a pathogen-free animal facility. All AML samples were transplanted via the tail vein into 8-12 week old sublethally irradiated (250 cGy, ^137Cs-gamma source) NSG mice. […] On day 4, equivalents of the three highest to cell doses from each of the 3-4 flasks per condition were transplanted. The technician injecting fresh and cultured cells in NSG mice was not informed about the experimental conditions. […] On average 150,000 gated events were acquired. Mice were considered positive if human cells represented >1% of the bone marrow cell population. Mice were excluded only in case of obvious non-leukemia related death (e.g. first two weeks after irradiation). To discriminate between engraftment of leukemic and normal cells present in unsorted patient samples only recipients with proportions of CD45^+CD33^+ or CD45^+CD34^+ cells higher than proportions of CD19^+CD33^- or CD3^+ were considered to harbor cells of leukemic origin. Statistical analyses of all in vitro experiments were done using Graphpad Prism v 6.01. […] Normalized CD34^+CD15^- percentages (td7/t0) were analyzed by Wilcoxon matched pairs signed rank test. Bars and error bars represent means and standard deviations (SD), or standard errors of the mean (SEM), as specified. Extreme limiting dilution analysis software (Hu, […]: extreme limiting dilution analysis for comparing depleted and enriched populations in stem cell and other assays. Journal of immunological methods 347, 70-78 (2009); http://bioinf.wehi.edu.au/software/elda/) was used to estimate LSC frequencies with 95% confidence intervals. In cases where all mice were positive or negative, one-sided confidence intervals were calculated. Differences in LSC frequencies between culture conditions were analyzed by Chi-square test.

AML cells = experiment: Morphology analysis (cytospins, Wright stain); type: cell-based, human; details: 4-day culture; SR1 500 nM, UM729 1 μM
Description: 2-4×10^5 fresh and cultured cells were centrifuged onto cytospin slides, stained with Wright stain solution for 10 minutes and washed with PBS and water prior to analysis. Pictures of cytospins were taken with a Canon® EOS 5D camera connected to a Zeiss® Axio Imager microscope (40× objective).

AML 05H163 cells = experiment: 5-day culture of AML 05H163 with AhR suppressors plus UM729; type: cell-based, human; details: 05H163, 5 days
Description: AML cells were thawed in 37° C. water bath and 1:10 diluted in prewarmed Iscove's modified Dulbecco's medium (IMDM) containing 20% FBS and DNase 100 μg/ml. Cells were cultured in IMDM supplemented with 15% BIT (bovine serum albumin, insulin, transferrin, Stem Cell Technologies #09500), SCF 100 ng/ml (Shenandoah #100-04), FLT3L 50 ng/ml (Shenandoah #100-21), II-3 20 ng/ml (Shenandoah #100-80), G-CSF 20 ng/ml (Shenandoah #100-72), β-mercaptoethanol (10^−4M), gentamicin (50 μg/ml) and ciprofloxacin (10 μg/ml). […] When compounds were added to the culture medium, final DMSO concentrations were 0.1% in all in vitro experiments and 0.01% when cultured cells were transplanted into NSG-mice.
Flow cytometry was performed on an LSR™ II cytometer equipped with an HTS-device (BD Bioscience, Primary and Secondary screens and in vitro validation experiments) or on a BD Canto™ II cytometer (BD Bioscience, Xenotransplantation and CellTrace Violet™ experiments). Cells were stained for 30 minutes at 4° C. protected from light if not otherwise indicated (CellTrace Violet™ staining). The following flow cytometry-antibodies were used: CD45 Pacific Blue (BioLegend 304029), CD33 PE (BD Bioscience 555450), CD34 APC (BD Bioscience 555824), CD3 FITC (BD Bioscience 555332), CD19 PE-Cy7 (BD Bioscience 557835), CD15 PE (BD Bioscience 555401), and anti-mouse CD45.1 APC-efluor 730 (eBioscience 47-0453-82). […]

human AHR = molecular target: T1, human AHR (Homo sapiens, UniProt P35869); details: Mezrich et al. 2012; cited from earlier work
T1 sequence (P35869 11-848): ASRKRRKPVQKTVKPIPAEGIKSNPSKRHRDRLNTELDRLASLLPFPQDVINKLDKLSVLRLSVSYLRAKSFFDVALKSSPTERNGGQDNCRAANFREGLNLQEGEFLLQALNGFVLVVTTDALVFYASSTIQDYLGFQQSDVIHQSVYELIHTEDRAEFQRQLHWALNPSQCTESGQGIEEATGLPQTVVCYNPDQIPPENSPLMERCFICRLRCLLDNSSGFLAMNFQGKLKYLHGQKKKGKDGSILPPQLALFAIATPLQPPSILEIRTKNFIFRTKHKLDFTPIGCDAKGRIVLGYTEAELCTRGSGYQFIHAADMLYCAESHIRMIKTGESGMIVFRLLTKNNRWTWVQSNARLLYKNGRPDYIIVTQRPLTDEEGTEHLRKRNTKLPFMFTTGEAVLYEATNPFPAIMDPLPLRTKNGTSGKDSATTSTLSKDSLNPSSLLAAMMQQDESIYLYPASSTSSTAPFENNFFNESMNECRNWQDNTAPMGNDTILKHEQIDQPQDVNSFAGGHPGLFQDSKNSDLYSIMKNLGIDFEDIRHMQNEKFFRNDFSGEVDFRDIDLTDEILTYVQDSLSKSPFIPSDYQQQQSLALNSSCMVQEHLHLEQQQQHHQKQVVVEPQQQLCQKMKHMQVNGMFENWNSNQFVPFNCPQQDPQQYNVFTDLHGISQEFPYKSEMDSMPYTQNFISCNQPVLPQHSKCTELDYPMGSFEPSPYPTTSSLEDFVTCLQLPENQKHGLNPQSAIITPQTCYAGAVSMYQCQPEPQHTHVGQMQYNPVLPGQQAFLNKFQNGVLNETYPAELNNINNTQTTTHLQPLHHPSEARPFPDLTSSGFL

Row | SMILES | percent gated cells (viability) (primary human AML cells [1]) [%] | % increase CD34+ (cell counts) (primary human AML cells [1]; compared to DMSO) [%] | % increase CD34+CD15− (cell counts) (primary human AML cells [1]; compared to DMSO) [%] | % increase CD34+CD15− (%) (primary human AML cells [1]) | impact on CD34+CD15− cell numbers ([2]; 7-day culture) | median CD34+CD15− percentage relative to uncultured cells ([2]; 7-day culture) [%] | % increase CD34+CD15− (%) 2ndary screen (primary human AML cells [3]) [%] | % increase CD34+CD15− (cell counts) 2ndary screen (primary human AML cells [3]) [%] | 2ndary screen criteria fulfilled (primary human AML cells [3]) | preventing AML cell differentiation in vitro, compound alone ([2]; 7-day culture) | distribution of cell generations / number of early cell divisions (AML cells (04H112)) | upregulation of AhR target genes AHRR and CYP1A1 upon 24 h in vitro culture [4] | other results
1 | CNC(=O)c1cc2c(cn1)[nH]c1ccccc12 [UM0119840, N-Methyl-beta-carboline-3-carboxamide] | 86.20 | 37.57 | 85.11 | 76.94 | significant impact | 56 | 172.95 | 252.10 | 1 |  |  |  | % increase CD34+ (%) (primary human AML cells [1]; compared to DMSO): 31.60%; CD34+CD15− cell counts in secondary screenings (ranking) (primary human AML cells [3]; in words): highest
2 | CC(C)n1cnc2c(NCCc3ccc(O)cc3)nc(-c3csc4ccccc34)nc21 [SR1, StemRegenin 1] |  |  |  |  | significant impact | 72 |  |  |  | superior to UM729 | no difference | effectively antagonized | samples with net expansion of CD34+CD15− cells ([2]; 7-day culture, compared to input): 15/16; increase in CD34+CD15− cell numbers ([2]; 7-day culture, maximum (AML 08H112)): up to 42 fold; total viable cells per flask (median±SD) following 4-day culture ([5]; cultures before transplantation, DMSO 6.2±3×10^6): 4.8±2×10^6; engraftment (average) ([5]; sample 05H163, progeny of 2×10^6 input cells, SR1-supplemented culture): 50%; supporting LSC functional activity, SR1 alone versus UM729 alone ([5]; six samples, engraftment in NSG mice): superior to UM729 in supporting LSC functional activity in four of six samples; also recorded: equally efficacious in two samples; engraftment levels compared to control DMSO ([5]; six samples, 4-day culture with SR1 0.5-1 μM, NSG mice): higher engraftment levels
3 | Clc1cc2c(cc1Cl)Oc1cc(Cl)c(Cl)cc1O2 [TCDD, 2,3,7,8-Tetrachlorodibenzodioxin] |  |  |  |  |  |  |  |  |  |  |  | marginally further induced | 
4 | COC(=O)c1ccc2c(c1)[nH]c1ncnc(NCCCN3CCCCC3)c12 [UM0125729, methyl 4-((3-(piperidin-1-yl)propyl)amino)-9H-pyrimido[4,5-b]indole-7-carboxylate] | 78.40 | 26.44 | 63.00 | 47.24 |  |  | 205.07 | 206.53 | 1 | most samples responded | did not affect |  | typical morphologic signs of differentiation on cytospins (AML cells): rarely seen; effect of adding UM729 to AhR suppressor-supplemented cultures ([2]; 7-day culture, CD34+CD15− percentage): enhanced the effect of SR1 in all specimens; CD34+CD38− and CD34+CD38+ compartments, SR1 and UM729 compared to DMSO ([2]; 7 days in culture): benefitted; effect on AhR target genes (CYP1A1, CYP1B1, AHRR) expression ([4]; 24 h incubation, compared to DMSO, GAPDH control): no effect; effect of adding UM729 to SR1- (or C05-) supplemented cultures on engraftment ([5]; 4-day culture, NSG mice, most samples): increased engraftment levels, but not LSC frequency; absolute numbers of CD34+CD15− cells, UM729 added compared to AhR suppressors alone (AML 05H163 cells): higher
5 | Cc1cc(C)c(/C=C2\C(=O)Nc3ccccc32)[nH]1 [SU5416, 3-(3,5-dimethyl-1H-pyrrol-2-ylmethylene)-1,3-dihydro-indole-2-one] |  |  |  |  |  |  |  |  |  |  |  |  | activation of the human AHR (human AHR): potency approaching TCDD
